Reference: patent US5994334A, “Androgen synthesis inhibitors” (priority 1997, dated 1999)
“Also recorded” adds a separate entry of the source. Read-outs that look alike come from different tables or passages of the source.

Tests used:
C17,20-lyase = conditions: [3H]-progesterone substrate; read-out: IC50 C17,20-lyase (Potter et al.); cited from earlier work
[1] = tested on: 17α-hydroxylase/C17,20-lyase; conditions: cited from earlier work
[2] = tested on: cytochrome P450 steroidogenic enzymes; conditions: human, in vivo; cited from earlier work
[3] = target: human androgen receptor (AR) (Homo sapiens, UniProt P10275); test: Androgen receptor-mediated gene transcription, wild-type AR (luciferase, CV1 cells); assay type: cell-based; conditions: against DHT stimulation
[4] = target: T1, Human Prostatic 5α-Reductase (Homo sapiens, UniProt P31213); test: Inhibition of human prostatic 5α-reductase (prostatic microsomes, [3H]testosterone); conditions: for inhibition at 0.01 µM: read-out: % Inhibition of 5α-reductase, [I] 10 nM; for inhibition at 0.1 µM: read-out: % Inhibition of 5α-reductase, [I] 100 nM
T1 sequence (P31213 1-254): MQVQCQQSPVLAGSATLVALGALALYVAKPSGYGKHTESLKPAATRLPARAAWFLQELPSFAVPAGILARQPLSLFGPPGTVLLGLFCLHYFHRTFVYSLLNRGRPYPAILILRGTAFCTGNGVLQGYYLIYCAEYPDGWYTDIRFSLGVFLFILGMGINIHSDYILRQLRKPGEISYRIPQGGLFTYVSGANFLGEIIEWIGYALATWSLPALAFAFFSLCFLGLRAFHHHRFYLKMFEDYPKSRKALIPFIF
Experimental: The 5α-reductase assay is performed by incubating human prostatic microsomes (approx. 0.6 mg protein in 0.5 ml phosphate buffer) with [7-^3 H]testosterone (10 mM. 6×10^5 dpm) with a NADPH generating system (NADP 0.65 mM; glucose-6-phosphate 7.1 mM; glucose-6-phosphate dehydrogenase 2.5 IU in 100 μl phosphate buffer) and candidate inhibitors at concentrations of 10 nM and 100 nM under oxygen for 30 min at 37° C. […] The steroids are extracted with ether and separated by chromatography on TLC (chloroform:ether 80:20). […] The steroids are scraped from the plate and radioactivity measured.

[5] = tested on: mutant AR which is expressed in LNCaP cells; test: Androgen receptor-mediated gene transcription, mutant AR of LNCaP cells (luciferase, CV1 cells); assay type: cell-based, human
[6] = target: T2, human 17α-hydroxylase/C17,20-lyase (Homo sapiens, UniProt P05093); test: Inhibition of human testicular 17α-hydroxylase/C17,20-lyase (enzyme complex as a whole); assay type: biochemical; conditions: for inhibition of 17α-hydroxylase/C17,20-lyase (in words): NI = no inhibition
T2 construct: incubating human testicular microsomes; from tissue; host or cells: human testis, microsomes
T2 sequence (P05093 1-508): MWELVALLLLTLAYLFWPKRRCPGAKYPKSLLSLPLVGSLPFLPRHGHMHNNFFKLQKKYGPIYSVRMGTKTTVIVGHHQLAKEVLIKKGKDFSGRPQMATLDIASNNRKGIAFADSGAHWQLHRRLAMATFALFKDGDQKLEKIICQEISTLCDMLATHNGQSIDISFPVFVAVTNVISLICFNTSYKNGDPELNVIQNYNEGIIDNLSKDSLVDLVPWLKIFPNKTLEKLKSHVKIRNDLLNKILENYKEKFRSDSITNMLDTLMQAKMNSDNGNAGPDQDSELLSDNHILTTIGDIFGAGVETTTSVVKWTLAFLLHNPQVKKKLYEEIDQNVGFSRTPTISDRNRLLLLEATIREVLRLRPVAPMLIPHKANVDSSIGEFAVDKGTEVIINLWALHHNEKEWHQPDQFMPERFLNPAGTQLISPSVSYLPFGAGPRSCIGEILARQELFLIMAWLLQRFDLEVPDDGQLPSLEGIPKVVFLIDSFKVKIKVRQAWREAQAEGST
Procedure, shortened: (§1)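 Human testicular microsomes were incubated with radiolabeled pregnenolone and a range of test compound concentrations. Substrate, 17α-hydroxypregnenolone and DHEA were separated and quantified by reverse-phase HPLC. Hydroxylase activity came from total conversion to 17α-hydroxypregnenolone plus DHEA; lyase activity from conversion to DHEA alone.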

normal male rats = test: In vivo studies in normal male rats: hormone levels; design: species or system rat; conditions: rat
From the text: (§2) Studies in normal male rats have been carried out with 4-pregnen-3-one-20β-carboxaldehyde (I-16) (Li et al., 1992) and with its 20-carboxaldoxime (I-23)(Li et al., 1995).

[7] = tested on: rat 17α-hydroxylase/C17,20-lyase; test: Inhibition of rat 17α-hydroxylase/C17,20-lyase; assay type: biochemical
From the text: as §2

[8] = tested on: LNCaP human prostatic tumors; test: Human prostatic cancer (LNCaP) xenograft in male nude mice; assay type: in vivo, human (LNCaP) tumors in BALB/c male athymic mice
Experimental: We have reported that inoculation of MCF-7 breast cancer cells in Matrigel increases mammary tumor formation in nude mice (Yue et al., 1994). The same procedure was therefore utilized to develop tumors from human prostatic cancer cells (LNCAP) in male nude mice. BALB/c male athymic mice, 4-6 weeks old, were inoculated sc with LNCaP cells suspended in Matrigel (10 mg/ml). Four sites per mouse were injected with 1.8×10^6 cells in 0.1 ml Matrigel. Treatment began when the tumor reached about 100 mm^3 in volume. Tumors were measured before the treatment began and once a week during treatment. Tumor volume was calculated by the formula 4/3πr1^2 r2 (r1 <r2).At the end of treatment, the mice were sacrificed and individual tumors were weighed. The latency of tumor development was 30-40 days and overall tumorigenicity was 82%.
In a further experiment, two mice were treated with I-16 (1 mg/mouse/day, s.c.) beginning 45 days after cell inoculation. Two mice received vehicle as controls. […] The mean tumor weight was 198.78±72 mg in I-16 treated mice compared to 386.3±147.2 mg in the control group. In other experiments, I-47 and I-49 were effective in controlling tumor growth. The total tumor volume of the control mice increased to 884.0% of the initial volume.

adrenal 17α-hydroxylase = test: Inhibition of adrenal 17α-hydroxylase; assay type: biochemical; conditions: guinea pig adrenal
Experimental: (§3) These studies were carried out using guinea pig adrenals. In contrast to the rat, the guinea pig synthesizes cortisol, like the human. […] I-5 and I-7 were of interest, as they had relatively little (4%) or no effect on the adrenal 17α-hydroxylase required for cortisol synthesis but had moderately strong effects on the C17,20 -lyase causing reduction in adrenal androgen synthesis (77% and 63%, respectively).

[9] = target: T3, Human Testicular C17,20-lyase (Homo sapiens, UniProt P05093); test: Inhibition of human testicular C17,20-lyase (pregnenolone substrate, testicular microsomes); assay type: biochemical
T3 construct: incubating human testicular microsomes; from tissue; host or cells: human testis, microsomes
T3 sequence (P05093 1-508): T2 sequence (P05093 1-508)
Procedure, shortened: as §1

adrenal C17,20-lyase = test: Inhibition of adrenal C17,20-lyase; assay type: biochemical; conditions: guinea pig adrenal
Experimental: as §3

[10] = target: T4, Human Testicular 17α-Hydroxylase (Homo sapiens, UniProt P05093); test: Inhibition of human testicular 17α-hydroxylase (pregnenolone substrate, testicular microsomes); assay type: biochemical
T4 construct: incubating human testicular microsomes; from tissue; host or cells: human testis, microsomes
T4 sequence (P05093 1-508): T2 sequence (P05093 1-508)
Procedure, shortened: as §1

[11] = tested on: adrenal 17α-hydroxylase/C17,20-lyase; test: Inhibition of adrenal 17α-hydroxylase/C17,20-lyase; assay type: biochemical; conditions: guinea pig adrenal
[12] = tested on: LNCaP human prostatic cancer cell line; test: Androgen-dependent growth of LNCaP cells
Experimental: The ability of various inhibitors to reverse the stimulatory effect of testosterone on the growth of the LNCaP human prostatic cancer cell line was tested by comparing cell number in wells treated for 9 days with either drug vehicle only (control), 0.1 nM testosterone only, or 0.1 nM testosterone with inhibitor at 0.3, 1, 2.5, or 5 μM.

[13] = tested on: human prostatic tissue (BPH or prostate cancer); test: Prostate tissue in histoculture, DNA synthesis ([3H]-thymidine uptake); conditions: inhibitor 1 μM
Experimental: We recently developed a histoculture method to evaluate the growth inhibiting properties of the compounds on human prostatic tissue. […] The tissue samples were then incubated for 3 days in fresh medium/treatment containing 2 μCi/ml [^3 H]-thymidine. Tissue was then digested and DNA extracted. For each sample, [^3 H]-thymidine uptake was normalized to DNA content. […] This finding is consistent with the compound acting as an antiandrogen. None of the compounds produced an independent effect on DNA synthesis in the absence of added androgens.

[14] = substrate: CC(=O)[C@H]1CC[C@H]2[C@@H]3CCC4=CC(=O)CC[C@]4(C)[C@H]3CC[C@]12C; test: Inhibition kinetics of rat 17α-hydroxylase, progesterone substrate; assay type: biochemical; conditions: other: substrate
[15] = substrate: CC(=O)[C@@]1(O)CC[C@H]2[C@@H]3CCC4=CC(=O)CC[C@]4(C)[C@H]3CC[C@@]21C; test: Inhibition kinetics of rat C17,20-lyase, 17α-hydroxyprogesterone substrate; assay type: biochemical; conditions: other: substrate
[16] = Table 1, NI = no inhibition, CI = complete inhibition, read-out: IC50 C17,20 lyase

Chain of human androgen receptor (AR) (P10275 whole entry): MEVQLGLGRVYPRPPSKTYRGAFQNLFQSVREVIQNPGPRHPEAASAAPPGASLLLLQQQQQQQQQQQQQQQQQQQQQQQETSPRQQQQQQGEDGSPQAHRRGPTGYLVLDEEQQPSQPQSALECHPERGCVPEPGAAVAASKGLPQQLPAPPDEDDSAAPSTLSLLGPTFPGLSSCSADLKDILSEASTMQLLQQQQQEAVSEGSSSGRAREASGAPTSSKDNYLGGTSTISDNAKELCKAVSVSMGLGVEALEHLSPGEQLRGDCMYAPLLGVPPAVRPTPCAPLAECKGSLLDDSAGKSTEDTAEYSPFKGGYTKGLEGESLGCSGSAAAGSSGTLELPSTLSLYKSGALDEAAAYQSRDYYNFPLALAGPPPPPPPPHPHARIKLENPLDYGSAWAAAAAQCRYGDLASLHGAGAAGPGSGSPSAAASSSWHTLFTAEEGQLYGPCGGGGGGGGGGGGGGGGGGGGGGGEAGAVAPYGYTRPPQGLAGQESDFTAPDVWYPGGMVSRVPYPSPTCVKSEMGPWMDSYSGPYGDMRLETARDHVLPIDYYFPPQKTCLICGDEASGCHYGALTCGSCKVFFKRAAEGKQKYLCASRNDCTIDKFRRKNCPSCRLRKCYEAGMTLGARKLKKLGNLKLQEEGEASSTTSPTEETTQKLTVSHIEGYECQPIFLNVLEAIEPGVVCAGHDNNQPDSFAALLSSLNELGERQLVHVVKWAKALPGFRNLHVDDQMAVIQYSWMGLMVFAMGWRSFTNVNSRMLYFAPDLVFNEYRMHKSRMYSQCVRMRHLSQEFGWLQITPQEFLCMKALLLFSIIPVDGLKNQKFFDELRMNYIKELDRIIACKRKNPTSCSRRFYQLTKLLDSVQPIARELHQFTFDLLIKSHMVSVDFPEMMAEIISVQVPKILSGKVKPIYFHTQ

Molecule: CC(=O)N1CCN(c2ccc(OCC3COC(Cn4ccnc4)(c4ccc(Cl)cc4Cl)O3)cc2)CC1 (centres unmarked) [Ketoconazole]
- IC50 (C17,20-lyase): 26 nM
- inhibition of 17α-hydroxylase/C17,20-lyase, literature (in words) [1]: not very potent
- side-effects (in words) [2]: inhibition of several other cytochrome P450 steroidogenic enzymes, and reduction of cortisol production

Molecule: C[C@H](C=O)[C@H]1CC[C@H]2[C@@H]3CCC4=CC(=O)CC[C@]4(C)[C@H]3CC[C@]12C [Compound I-16, 4-pregnen-3-one-20β-carboxaldehyde]
- antagonism of wild-type AR (in words) [3]: dose-dependent antagonism
- inhibition at 0.01 µM [4]: 20.5%
- inhibition at 0.1 µM [4]: 87.2%
- agonism/antagonism at mutant AR of LNCaP cells (in words) [5]: agonists
- inhibition of 17α-hydroxylase/C17,20-lyase (in words) [6]: significant inhibition
- reduction of testosterone and DHT levels in serum, testicular and prostatic tissues (in words) (normal male rats): significantly reducing testosterone and DHT levels
- inhibition of rat 17α-hydroxylase/C17,20-lyase (in words) [7]: inhibit rat 17α-hydroxylase/C17,20 -lyase
- total tumor volume (% of initial volume), 3 weeks ([8]; 1 mg/mouse/day s.c., 3 weeks, two mice, control 281%): 173.6%
- mean tumor weight, 3-week experiment ([8]; 1 mg/mouse/day s.c., control 386.3±147.2 mg): 198.78 ± 72 mg

Molecule: C[C@]12CC[C@H]3[C@@H](CC=C4C[C@@H](O)CC[C@@]43C)[C@@H]1CC[C@@H]2[C@]1(C)CO1 [Compound I-7]
- inhibition at 0.01 µM [4]: 13.6%
- inhibition at 0.1 µM [4]: 12.1%
- effect on adrenal 17α-hydroxylase (in words) (adrenal 17α-hydroxylase): no effect
- IC50 [9, 16]: 720 nM
- reduction in adrenal androgen synthesis (C17,20-lyase) (adrenal C17,20-lyase): 63%

Molecule: CC(=NO)C1=CC[C@H]2[C@@H]3CC=C4C[C@@H](O)CC[C@]4(C)[C@H]3CC[C@]12C [Compound I-5, 16-dehydropregnenolone-20-oxime]
- inhibition at 0.01 µM [4]: 0%
- inhibition at 0.1 µM [4]: 5.92%
- inhibition of 17α-hydroxylase/C17,20-lyase (in words) [6]: potent inhibition
- fold more potent inhibition than 20-oxime (I-1) ([6]; vs I-1): 35 fold
- effect on adrenal 17α-hydroxylase (adrenal 17α-hydroxylase; 17α-hydroxylase required for cortisol synthesis): 4%
- IC50 ([10]; IC50 17α-OHase): 16 nM
- IC50 ([9]; IC50 C17,20 lyase): 16 nM
- reduction in adrenal androgen synthesis (C17,20-lyase) (adrenal C17,20-lyase): 77%

Molecule: C[C@]12CC[C@H]3[C@@H](CC=C4C[C@@H](O)CC[C@@]43C)[C@@H]1CC[C@@H]2c1c[nH]cn1 [Compound I-47, 17β-(4'-imidazolyl)-androst-5-en-3β-ol]
- antagonism of wild-type AR (in words) [3]: dose-dependent antagonism
- effect on adrenal enzyme (in words) [11]: very little effect
- agonism/antagonism at mutant AR of LNCaP cells (in words) [5]: antagonist; also recorded: not an agonist of the mutant receptor
- inhibition of 17α-hydroxylase/C17,20-lyase (in words) [6]: potent inhibitors
- times more potent than ketoconazole ([6]; vs ketoconazole): 10-50 times
- reversal of DHT-stimulated LNCaP growth (in words) ([12]; 0.03 nM DHT): dose-dependent reversal
- reversal of DHT-stimulated LNCaP growth at 5 μM (in words) ([12]; 0.03 nM DHT, inhibitor 5 μM): nearly complete reversal
- reversal of testosterone-stimulated LNCaP growth at 5 μM (in words) ([12]; 0.1 nM testosterone, inhibitor 5 μM): almost completely reversed
- reversal of testosterone-stimulated LNCaP growth (in words) ([12]; 0.1 nM testosterone, inhibitor 0.3-5 μM, 9 days): dose-dependent reversal
- IC50 ([12]; Homo sapiens, LNCaP, 216 h, read-out: concentration reducing the stimulatory effect of testosterone by 50%): ≤ 1000 nM
- IC50 ([10]; Table 1, NI = no inhibition, read-out: IC50 17α-OHase): 25 nM
- IC50 ([10]; Table 3, first figure of 17α-hydroxylase/lyase pair, read-out: IC50 17α-hydroxylase): 25.2 nM
- IC50 ([10]; first figure of pair, read-out: IC50 17α-hydroxylase): 11 nM
- IC50 [9, 16]: 23 nM
- IC50 ([9]; Table 3, second figure of pair, CI = complete inhibition, read-out: IC50 lyase): 22.6 nM
- IC50 ([9]; second figure of pair, read-out: IC50 C17,20-lyase): 7 nM
- total tumor volume (% of initial volume), 5 weeks ([8]; five weeks, 4 mice per group, control 884.0%, FIG. 2): 525.8%
- mean tumor weight, 5-week experiment ([8]; five weeks, control 1310.5±1125.9 mg, I-49 p<0.05 vs control): 607.0 ± 142.4 mg
- reversal of DHT-stimulated DNA synthesis (in words), 1 μM ([13]; DHT 10 nM): almost completely reversed
- reversal of testosterone-stimulated DNA synthesis (in words), 1 μM ([13]; testosterone 1 μM, FIG. 1): almost complete reversal

B1: rat 17α-hydroxylase (Rattus norvegicus) (protein)
chain: MWELVGLLLLILAYFFWVKSKTPGAKLPRSLPSLPLVGSLPFLPRRGHMHVNFFKLQEKYGPIYSLRLGTTTTVIIGHYQLAREVLIKKGKEFSGRPQMVTQSLLSDQGKGVAFADAGSSWHLHRKLVFSTFSLFKDGQKLEKLICQEAKSLCDMMLAHDKESIDLSTPIFMSVTNIICAICFNISYEKNDPKLTAIKTFTEGIVDATGDRNLVDIFPWLTIFPNKGLEVIKGYAKVRNEVLTGIFEKCREKFDSQSISSLTDILIQAKMNSDNNNSCEGRDPDVFSDRHILATVGDIFGAGIETTTTVLKWILAFLVHNPEVKKKIQKEIDQYVGFSRTPTFNDRSHLLMLEATIREVLRIRPVAPMLIPHKANVDSSIGEFTVPKDTHVVVNLWALHHDENEWDQPDQFMPERFLDPTGSHLITPTQSYLPFGAGPRSCIGEALARQELFVFTALLLQRFDLDVSDDKQLPRLEGDPKVVFLIDPFKVKITVRQAWMDAQAEVST
- Km [14]: 0.029 µM

B2: rat C17,20-lyase (Rattus norvegicus) (protein)
chain: B1 chain
- Km [15]: 0.076 µM
